Data taken from article PMC11547576, “Identification of a New Promising BAG3 Modulator Featuring the Imidazopyridine Scaffold” (Molecules, 2024).

Columns and labels:
HeLa cells [1] = experiment: MTT cell viability assay on HeLa cells; format: cell-based; details: Homo sapiens, 72 h
Protocol: Elevated expression levels of BAG3 are strongly associated with signaling pathways in various types of malignant cells; consequently, reducing the activity of this co-chaperone inhibits cell proliferation, triggers apoptosis, and induces cell cycle arrest. To assess the activity of compounds 10, 12, and 14, cytotoxicity assays were performed on HeLa cells, which were chosen for their tendency to overexpress BAG3 proteins. MTT assays were conducted by exposing HeLa cells to different concentrations of the compounds (25, 50, and 100 µM) for 72 h. Additionally, 10% DMSO was used as a positive control, while 0.1% DMSO served as a negative control. […] The next step involved the assessment of the cytotoxicity of the most promising candidate, 10, on healthy cells to determine its safety profile. To achieve this, MTT assays were conducted on HaCat cells over 72 h.
Human cervical carcinoma cell lines (HeLa, kindly donated by Prof. Ornella Moltedo, Department of Pharmacy, University of Salerno) and immortalized human keratinocytes (HaCaT) were cultured in a DMEM/high glucose medium. This medium was supplemented with 10% FBS (v/v), 2 mM/L glutamine, 100 U/mL penicillin, and […] streptomycin. The cells were maintained at 37 °C in a humidified atmosphere with 5% CO2. To ensure logarithmic growth, the cells were sub-cultured every 2 days.
Cell viability was assessed by measuring mitochondrial metabolic activity using a colorimetric assay, which involves the reduction of 3-[4,5-dimethylthiazol-2,5-diphenyl-2H-tetrazolium bromide (MTT) to purple formazan. Stock solutions of compounds 10, 12, and 14 (50 mM in DMSO) were stored at −20 °C in the dark and diluted just before being added to the sterile culture medium. Briefly, HeLa cells (3.5 × 10^3 cells/well) were seeded in triplicate in 96-well plates, and after 24 h, to allow for attachment, the cells were treated with various concentrations of the tested compounds (25, 50 and 100 μM), 0.1% (v/v) DMSO as a negative control, and 10% (v/v) DMSO as a positive control for 72 h. Following treatment, 20 μL of MTT (5 mg/mL in PBS) was added to each well, and the cells were incubated for an additional 3 h at 37 °C. The formazan crystals formed were then dissolved in 100 μL of a buffer containing 50% (v/v) N, N-dimethylformamide and 20% SDS (pH 4.5). Absorbance was measured at 570 nm using a Multiskan™ GO Microplate Spectrophotometer (Thermo Fisher Scientific, Waltham, MA, USA,). […] The IC50 values, representing the concentration causing 50% inhibition of cell survival, were calculated and compared to control cells treated with DMSO using GraphPad Prism 8.0 software through nonlinear regression of dose–response inhibition. Only for compound 10 was the IC50 also assessed on HaCaT cells (5.0 × 10^3 cells/well) after 72 h of treatment.

HeLa cells [2] = experiment: Annexin V-FITC/PI staining apoptosis assay (FACS); format: cell-based, human; details: 72 h
Protocol: Given BAG3’s well-documented anti-apoptotic role, annexin V-FITC/PI staining was performed to evaluate the effects of compound 10 on cell apoptosis. […] Specifically, at 50 µM, 81.0 ± 3.89% of the cells were apoptotic (p < 0.001 vs. Ctrl); at 30 µM, 70.5 ± 4.56% were apoptotic (p < 0.01 vs. Ctrl); and at 20 µM, 51.5 ± 2.23% were apoptotic (p < 0.05 vs. Ctrl) (Figure 3A,B).
Apoptosis of the cells was assessed using the Annexin V-FITC/PI reagents. Hela cells (20 × 10^3) were seeded into 24-well plates and incubated for 72 h with compound 10. After treatment, the collected cells were resuspended in a 100 μL assay buffer, then 5 μL Annexin V-FITC and 1 μL PI reagents were added following an incubation for 20 min at RT according to the manufacturer’s protocol (Dead Cell Apoptosis Kits with Annexin V for Flow Cytometry, Thermo Fisher Scientific). The cells were analyzed with a Becton Dickinson FACScan flow cytometer using the Cell Quest software, version 4 (Franklin Lakes, NJ, USA). See Supplementary Materials for the data plots (Figure S54).

Structure (SMILES): CC(C)Nc1c(-c2ccccc2Br)nc2ccc(Cl)cn12 [Compound 10, 2-(2-bromophenyl)-6-chloro-N-isopropylimidazo[1,2-a]pyridin-3-amine]
- mortality at 25 µM (HeLa cells [1]; 25 µM): 50%
- mortality at 100 µM (HeLa cells [1]; 100 µM): > 90%
- IC50 (HeLa cells [1]; seven concentrations (1 to 100 µM)): 25.1 ± 2.67 µM
- apoptotic cells (HeLa cells [2]; 20 µM): 51.5 ± 2.23%
- apoptotic cells (HeLa cells [2]; 30 µM): 70.5 ± 4.56%
- apoptotic cells (HeLa cells [2]; 50 µM): 81.0 ± 3.89%
